The values below are quoted from earlier work in US20050192267A1, “Use of targeted oxidative therapeutic formulation in treatment of viral diseases” (priority 2004, published 2005).

SMILES strings stand for the structures.

Series [1] concerns E. coli. As to conditions: increasing concentration of peroxide ex-vivo in rabbit or human blood.
Series [2] concerns peroxide-sensitive E. coli. As to conditions: infused into the blood of infected rabbits.
Series [3] has as its system Hepatitis C. The following applies: chronic Hepatitis C; used alone.

Regarding `OO` [hydrogen peroxide, Hydrogen peroxide], the direct bactericidal activity result in series [1] is on record as “no evidence of direct bactericidal activity”. Also, the bactericidal effect result in series [2] was “no bactericidal effect”.

Take `NC(=O)c1ncn([C@@H]2O[C@H](CO)[C@@H](O)[C@H]2O)n1` [Ribavirin, ribavirin]: the effectiveness of treatment entry in series [3] was “does not appear to be effective”.
